The source of these data is US20240368096A1 (Enanta Pharmaceuticals, Inc., priority 2022, published 2024).

For the experiment, the system named is HBV. The experiment is described as follows: HBV infection in HepG2-NTCP cells (HBeAg AlphaLISA in supernatants). To be noted: Hepatitis B virus, 192 h; HBV infection of HepG2-NTCP cells; HBeAg in supernatants at day 8 post infection; read-out: Cellular EC50. The experiment is classed as cell-based. The method, boiled down:
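HepG2-NTCP A3 cells were pre-incubated 2 h with 3-fold serially diluted compounds, then infected with HBV at 2000 GE/cell with 4% PEG (0.5% DMSO final). After washing on day 1, cells stayed in 2.5% DMSO medium; supernatant HBeAg measured by AlphaLISA on day 8, EC50 versus DMSO controls.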
(Bead proximity is the source of the signal in Alpha formats.)

pEC50: −log10 of the molar value.

For orientation: pEC50 means the negative decadic logarithm of the EC50, by convention in mol/L. In the case of `COc1cccc(Oc2cc3c(cc2-c2ccc(F)c(C(=O)O)c2)S(=O)(=O)N(C)[C@H](CC(C)C)CN3c2ccccc2)c1` [Example 427], the pEC50 is > 7.00. For `CC(C)C[C@@H]1CN(c2ccccc2)c2cc(Cl)c(-c3cc(C(=O)O)cc(C(F)(F)F)c3)cc2S(=O)(=O)N1C` [Example 164], the pEC50 is 6.00 to 7.00. Next, `CN1[C@H](CC(C)(C)C)CN(c2ccccc2)c2cc(Cl)c(-c3ccc(Cl)c(C(=O)O)c3)cc2S1(=O)=O` [Example 51]: > 7.00; `CN1[C@H](C2CCCCC2)CN(c2ccccc2)c2cc(OCC34CC(CO3)C4)c(-c3ccc(F)c(C(=O)O)c3)cc2S1(=O)=O` [Example 371]: > 7.00; `CC(C)C[C@@H]1CN(c2ccccc2)c2cc(OC(C)(C)C)c(-c3ccc(Cl)c(C(=O)O)c3)cc2S(=O)(=O)N1C` [Example 440]: > 7.00. On to `CSc1cc2c(cc1-c1cncc(C(=O)O)c1)S(=O)(=O)N1CC(C)(C)CC1CN2c1ccccc1` (stereo not drawn) [Example 21], for which the pEC50 is 6.00 to 7.00. `CCCCOc1cc2c(cc1-c1ccc(F)c(C(=O)O)c1)S(=O)(=O)N(C)[C@H](C1CCCCC1)CN2c1ccccc1` [Example 350]: the pEC50 was > 7.00. As to `CN1[C@H](C2CCCCC2)CN(c2ccccc2)c2cc(Cl)c(-c3cc(C(=O)O)c4ccccc4c3)cc2S1(=O)=O` [Example 196], the pEC50 is 6.00 to 7.00. Next, `CN1[C@H](C2CCCCC2)CN(c2ccccc2)c2cc(Cl)c(-c3ccc4c(c3)S(=O)(=O)NC4=O)cc2S1(=O)=O` [Example 198]: 6.00 to 7.00. Next, `Cc1c(C(=O)O)cccc1-c1cc2c(cc1Cl)N(c1ccccc1)C[C@@H](C1CCCCC1)N(C)S2(=O)=O` [Example 144, (R)-3-(7-chloro-3-cyclohexyl-2-methyl-1,1-dioxido-5-phenyl-2,3,4,5-tetrahydrobenzo[f][1,2,5]thiadiazepin-8-yl)-2-methylbenzoic acid]: < 6.00. Take `CCCCC1CN(c2ccccc2)c2cc(CN3CCCCC3)c(-c3ccc(F)c(C(=O)O)c3)cc2S(=O)(=O)N1C` (stereo not drawn) [Example 564]: the pEC50 is 6.00 to 7.00. Next, `CN1[C@H](C2CCCCO2)CN(c2ccccc2)c2cc(Cl)c(-c3ccc(F)c(C(=O)O)c3)cc2S1(=O)=O` (stereo partly drawn) [Example 104, 5-((3S)-7-chloro-2-methyl-1,1-dioxido-5-phenyl-3-(tetrahydro-2H-pyran-2-yl)-2,3,4,5-tetrahydrobenzo[f][1,2,5]thiadiazepin-8-yl)-2-fluorobenzoic acid]: 6.00 to 7.00; `CCCCCCCCCCOc1cc2c(cc1-c1ccc(F)c(C(=O)O)c1)S(=O)(=O)N(C)[C@H](C1CCCCC1)CN2c1ccccc1` [Example 354]: 6.00 to 7.00.

As for `CN1C(C23CC(C2)C3)CN(c2ccccc2)c2cc(Cl)c(-c3ccc(F)c(C(=O)O)c3)cc2S1(=O)=O` (stereo not drawn) [Example 86], the pEC50 was 6.00 to 7.00. For the compound `CCCC[C@@H]1CN(c2ccccc2)c2cc(C)c(-c3ccc(Cl)c(C(=O)O)c3)cc2S(=O)(=O)N1C` [Example 567], the pEC50 is 6.00 to 7.00. The result for `CC(C)C[C@@H]1CN(c2ccccc2)c2cc(Nc3ccncc3)c(-c3ccc(Cl)c(C(=O)O)c3)cc2S(=O)(=O)N1C` [Example 550] reads < 6.00. The result for `CC(=O)NS(=O)(=O)c1cccc(-c2cc3c(cc2Cl)N(c2ccccc2)C[C@@H](C2CCCCC2)N(C)S3(=O)=O)c1` [Example 222] reads 6.00 to 7.00; that for `CC(C)C[C@@H]1CN(c2ccccc2)c2cc(Cl)c(-c3cccc(CCC(=O)O)c3)cc2S(=O)(=O)N1C` [Example 172], < 6.00. Next, `CCCCC[C@H](C)Oc1cc2c(cc1-c1ccc(F)c(C(=O)O)c1)S(=O)(=O)N(C)[C@H](C1CCCCC1)CN2c1ccccc1` [Example 356]: > 7.00. Turning to `CN1[C@H](C2CCCC2)CN(c2ccccc2)c2cc(Cl)c(-c3ccc(F)c(C(=O)O)c3)cc2S1(=O)=O` [Example 66], the pEC50 is 6.00 to 7.00. On to `CO[C@H]1C[C@@H](N2C[C@@H](CC(C)C)N(C)S(=O)(=O)c3cc(-c4ccc(F)c(C(=O)O)c4)c(Oc4ccccc4F)cc32)C1` [Example 473], for which the pEC50 was 6.00 to 7.00. Next, `CN1[C@H](C2CCCCC2)CN(c2ccccc2)c2cc(Cl)c(-c3ccc(O)c(C(=O)O)c3)cc2S1(=O)=O` [Example 156, (R)-5-(7-chloro-3-cyclohexyl-2-methyl-1,1-dioxido-5-phenyl-2,3,4,5-tetrahydrobenzo[f][1,2,5]thiadiazepin-8-yl)-2-hydroxybenzoic acid]: > 7.00; `CC(C)C[C@@H]1CN(c2ccccc2)c2cc(Cl)c(-c3ccc(C4=CCC(C)(C)CC4)c(C(=O)O)c3)cc2S(=O)(=O)N1C` [Example 217]: < 6.00; `CN1[C@H](CC2CCC2)CN(c2ccccc2)c2cc(Cl)c(-c3ccc(F)c(C(=O)O)c3)cc2S1(=O)=O` [Example 75]: 6.00 to 7.00.

Regarding `CC(C)[C@@H]1CN(c2ccccc2)c2cc(Cl)c(-c3cc(F)c(C(=O)O)s3)cc2S(=O)(=O)N1C` [Example 120], the pEC50 is > 7.00. For the compound `Cc1cc(-c2cc3c(cc2Cl)N(c2ccccc2)C[C@@H](C2CCCCC2)N(C)S3(=O)=O)oc1C(=O)O` [Example 124], the pEC50 was > 7.00. The result for `CC(C)C[C@@H]1CN(c2ccccc2)c2cc(O[C@H]3CCOC3)c(-c3ccc(F)c(C(=O)O)c3)cc2S(=O)(=O)N1C` [Example 446] reads 6.00 to 7.00. The result for `CC(C)C[C@@H]1CN(c2ccccc2)c2cc(Cl)c(-c3ccc4o[nH]c(=O)c4c3)cc2S(=O)(=O)N1C` [Example 180] reads 6.00 to 7.00; that for `Cc1csc(COc2cc3c(cc2-c2cc(F)c(C(=O)O)s2)S(=O)(=O)N(C)[C@H](C2CCCCC2)CN3c2ccccc2)n1` [Example 501], > 7.00. The result for `CC(C)C[C@@H]1CN(c2ccccc2)c2cc(Oc3cccc(C(F)(F)F)c3)c(-c3ccc(F)c(C(=O)O)c3)cc2S(=O)(=O)N1C` [Example 425] reads > 7.00; that for `CC(=O)Nc1ccc(-c2cc3c(cc2Cl)N(c2ccccc2)C[C@@H](C2CCCCC2)N(C)S3(=O)=O)cc1C(=O)O` [Example 229], > 7.00; that for `CC(C)C[C@@H]1CN(c2ccccc2)c2cc(N(C)c3ccc(F)cc3)c(-c3ccc(Cl)c(C(=O)O)c3)cc2S(=O)(=O)N1C` [Example 554], 6.00 to 7.00.

On to `CN1[C@H](C2CCCCC2)CN(c2ccccc2)c2cc(OCc3ccoc3)c(-c3ccc(F)c(C(=O)O)c3)cc2S1(=O)=O` [Example 333], for which the pEC50 is > 7.00. Next, `CN1[C@H](C2CCCCC2)CN(c2ccccc2)c2cc(OCCC3CCN(C(=O)OC(C)(C)C)CC3)c(-c3ccc(F)c(C(=O)O)c3)cc2S1(=O)=O` [Example 367]: > 7.00; `CC(C)C[C@@H]1CN(c2ccccc2)c2cc(Cl)c(-c3cccc(S(=O)(=O)NC(=O)c4ccccc4)c3)cc2S(=O)(=O)N1C` [Example 221]: 6.00 to 7.00. Next, `CC(C)C[C@@H]1CN(c2ccccc2)c2cc(Nc3ccccn3)c(-c3ccc(Cl)c(C(=O)O)c3)cc2S(=O)(=O)N1C` [Example 549]: 6.00 to 7.00. The result for `CN1[C@H](C2CC2)CN(c2ccccc2)c2cc(Cl)c(-c3ccc(Cl)c(C(=O)O)c3)cc2S1(=O)=O` [Example 65] reads > 7.00. For the compound `CCCC[C@@H]1CN(c2ccccc2)c2cc(Oc3ccc(F)cc3)c(-c3ccc(F)c(C(=O)O)c3)cc2S(=O)(=O)N1C` [Example 421], the pEC50 is 6.00 to 7.00.

With `CN1[C@H](C2CC2)CN(c2ccccc2)c2cc(Cl)c(-c3ccc(F)c(C(=O)O)c3)cc2S1(=O)=O` [Example 64, (R)-5-(7-chloro-3-cyclopropyl-2-methyl-1,1-dioxido-5-phenyl-2,3,4,5-tetrahydrobenzo[f][1,2,5]thiadiazepin-8-yl)-2-fluorobenzoic acid], the negative logarithm of the EC50 (pEC50) is 6.00 to 7.00.

Regarding `CN1[C@H](C2CCCCC2)CN(c2cnccn2)c2cc(Cl)c(-c3ccc(F)c(C(=O)O)c3)cc2S1(=O)=O` [Example 289], the pEC50 is 6.00 to 7.00. The result for `CN1[C@H](CBr)CN(c2ccccc2)c2cc(Cl)c(-c3ccc(F)c(C(=O)O)c3)cc2S1(=O)=O` [Example 107, (S)-5-(3-(bromomethyl)-7-chloro-2-methyl-1,1-dioxido-5-phenyl-2,3,4,5-tetrahydrobenzo[f][1,2,5]thiadiazepin-8-yl)-2-fluorobenzoic acid] reads < 6.00. `COc1cc(-c2cc3c(cc2Cl)N(c2ccccc2)C[C@@H](CC(C)C)N(C)S3(=O)=O)cc(C(=O)O)c1F` [Example 179, (R)-5-(7-chloro-3-isobutyl-2-methyl-1,1-dioxido-5-phenyl-2,3,4,5-tetrahydrobenzo[f][1,2,5]thiadiazepin-8-yl)-2-fluoro-3-methoxybenzoic acid]: the pEC50 is 6.00 to 7.00. Next, `CCC[C@@H]1CN(c2ccccc2)c2cc(Cl)c(-c3ccc(Cl)c(C(=O)O)c3)cc2S(=O)(=O)N1C` [Example 48]: > 7.00. Next, `CN1[C@H](C2CCC2)CN(c2ccccc2)c2cc(Cl)c(-c3ccc(F)c(C(=O)O)c3)cc2S1(=O)=O` [Example 80, (R)-5-(7-chloro-3-cyclobutyl-2-methyl-1,1-dioxido-5-phenyl-2,3,4,5-tetrahydrobenzo[f][1,2,5]thiadiazepin-8-yl)-2-fluorobenzoic acid]: > 7.00; `CC(C)C[C@@H]1CN(c2ccccc2)c2cc(Cl)c(-c3ccc4onc(N)c4c3)cc2S(=O)(=O)N1C` [Example 170]: < 6.00; `CN1[C@@H](Cc2ccc(Cl)cc2)CN(c2ccccc2)c2cc(F)c(-c3ccc(F)c(C(=O)O)c3)cc2S1(=O)=O` [Example 2]: < 6.00. Next, `CN1[C@H](C2CCCCC2)CN(c2ccccc2)c2cc(OC3CC(C)(C)C3)c(-c3cc(F)c(C(=O)O)s3)cc2S1(=O)=O` [Example 483, (R)-5-(3-cyclohexyl-7-(3,3-dimethylcyclobutoxy)-2-methyl-1,1-dioxido-5-phenyl-2,3,4,5-tetrahydrobenzo[f][1,2,5]thiadiazepin-8-yl)-3-fluorothiophene-2-carboxylic acid]: > 7.00; `CN1[C@H](C2CCCCC2)CN(C2CCC2)c2cc(Cl)c(-c3ccc(F)c(C(=O)O)c3)cc2S1(=O)=O` [Example 322]: 6.00 to 7.00.
